Laboratory results from PMC7696185, “Synthesis of New 1, 3, 4-Oxadiazole-Incorporated 1, 2, 3-Triazole Moieties as Potential Anticancer Agents Targeting Thymidylate Synthase and Their Docking Studies” (Pharmaceuticals, 2020).
Where two headings read alike, the source gives them in different places.

How the values were obtained:
[1] = tested on: MCF-7 cells; assay: MTT cytotoxicity assay, MCF-7; type: cell-based, human; details: for IC50: Homo sapiens, MCF7, breast cancer MCF-7, MTT, 72 h
Protocol: (§1) These compounds were tested against breast MCF-7 and colorectal HCT-116 cell lines.
The human breast cancer cell line (MCF-7) used in the present study was obtained from Dr. Neamatallah’s lab. The cells were cultured in Dulbecco’s Modified Eagle Medium (DMEM) supplemented with 10% (v/v) fetal bovine serum (FBS), 10,000 units/mL penicillin/streptomycin, and 1% (v/v) L-glutamine at 37 °C in humidified 5% CO2 incubator.
(§2) The cytotoxicity activity was done by MTT assay. Breast MCF-7 and colorectal HCT-116 cancer cells were added at 1 × 10^5 cells/mL into a 96-well plate with three replicates, and incubated overnight for attachment at 37 °C in a 5% CO2 humidified atmosphere. Drug concentrations at six serial dilutions (100.0, 50.0, 10.0, 1.0, 0.5, and 0.1 μM) were added in triplicate and incubated at 37 °C and 5% CO2 for 72 h. Drugs were dissolved in 0.1% DMSO as a vehicle. Untreated cells were used as control. […] Thereafter, each well for each time point was removed and replaced with […] of full medium containing 10% 3-(4,5- dimethylthiaxolyl-2)-2,5-diphenyltetrazoliumbromide (MTT) (10 mg/mL). Then the media was removed and 100 µl of DMSO was added, and cells were incubated for a further 5 mins at 37 °C and 5% CO2. Plates were quantified using the SpectraMax M3 plate reader at 570 nm. The percentage inhibition was calculated as 100 − ((mean OD of treated cell × 100)/Mean OD of vehicle treated cells (DMSO)). All the experiments were repeated in at least three independent experiments (Table 2, Figure 3, Figure 4, Figure 5 and Figure 6).

[2] = tested on: HCT-116 cells; assay: MTT cytotoxicity assay, HCT-116; type: cell-based, human; details: for IC50: colorectal cancer HCT-116, MTT, 72 h; for fold activity compared to 5-fluorouracil, HCT-116 / fold activity compared to tamoxifen, HCT-116: ratio of IC50, HCT-116
Protocol: as §1, §2

[3] = tested on: HEK 293 cells; assay: MTT assay on non-tumorigenic cell line HEK 293; type: cell-based; details: HEK293, normal human embryonic kidney cells
[4] = target: thymidylate synthase (TS) (Homo sapiens, UniProt P04818); assay: In vitro thymidylate synthase enzyme assay; type: biochemical; details: for fold activity compared to pemetrexed, TS: ratio of IC50, TS enzyme
Sequence of thymidylate synthase (TS) (P04818 whole entry): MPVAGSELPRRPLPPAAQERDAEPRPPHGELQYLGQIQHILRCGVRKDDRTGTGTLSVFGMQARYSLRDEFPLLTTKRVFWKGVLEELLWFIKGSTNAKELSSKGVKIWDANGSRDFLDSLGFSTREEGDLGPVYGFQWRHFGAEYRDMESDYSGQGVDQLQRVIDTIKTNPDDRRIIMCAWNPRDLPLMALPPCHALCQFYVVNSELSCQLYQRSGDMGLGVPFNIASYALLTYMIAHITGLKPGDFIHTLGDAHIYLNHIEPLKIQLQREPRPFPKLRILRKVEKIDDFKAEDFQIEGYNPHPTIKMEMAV
Protocol: The inhibition of this enzyme plays a vital role in chemotherapy treatment. […] This inactivation of dTMP results in a reduction of deoxythymidine triphosphate (dTTP), leading to the disruption of DNA synthesis and cessation of cell growth and proliferation (Figure 7).
A thymidylate synthase enzymatic assay was carried out according to the reported method. It involves a mixture containing 2-mercaptoethanol (0.1 M), (6R,S)-tetrahydrofolate (0.0003 M), formaldehyde (0.012 M), MgCl2 (0.02 M), dUMP (0.001 M), TrisHCl (0.04 M), and NaEDTA (0.00075 M).This assay was done spectrophotometrically at 30° C and pH 7.4. The reaction was initiated by the addition of an amount of enzyme, giving a change in absorbance at 340 nm of 0.016/min in the absence of inhibitor. The percent inhibition was determined at a minimum of four inhibitor concentrations within 20% of the 50% point.

[5] = spectrophotometric, 340 nm, 30 °C, pH 7.4, read-out: IC50 thymidylate synthase

SMILES | IC50 [1] | IC50 ([2]; Homo sapiens, HCT-116, 72 h) | melting point | other results
Cc1ccccc1-n1cc(CSc2nnc(-c3ccccc3)o2)nn1 [Compound 7, 4-((5-phenyl–1,3,4-oxadiazol-2-ylthio)methyl)–1-o-tolyl-1H–1,2,3-triazole] | 30.7 µM | 34.3 µM |  | 
c1ccc(-c2nnc(SCc3cn(-c4ccccc4)nn3)o2)cc1 [Compound 12, 4-((5-phenyl–1,3,4-oxadiazol–2-ylthio)methyl)-1-phenyl-1H–1,2,3-triazole] | 5.8 µM | 14.8 µM |  | fold activity compared to 5-fluorouracil, MCF-7 ([1]; ratio of IC50, MCF-7): four-fold; fold activity compared to 5-fluorouracil, HCT-116 [2]: 2.2 fold; fold activity compared to tamoxifen, HCT-116 [2]: 1.7 fold; IC50 [3]: > 50 µM; fold activity compared to pemetrexed, TS [4]: 2.6 fold; IC50 [4, 5]: 2.52 µM
O=[N+]([O-])c1ccc(-n2cc(CSc3nnc(-c4ccccc4)o3)nn2)cc1 [Compound 11, 4-((5-phenyl–1,3,4-oxadiazol–2-ylthio)methyl)–1-(4-nitrophenyl)-1H–1,2,3-triazole] | 98.2 µM | > 100 µM | 202 to 204 °C | IC50 [2]: 102 µM
Clc1ccccc1-n1cc(CSc2nnc(-c3ccccc3)o2)nn1 [Compound 8, 4-((5-phenyl–1,3,4-oxadiazol–2-ylthio)methyl)–1-(2-chlorophenyl)-1H–1,2,3-triazole] | 73.3 µM | > 100 µM | 111 to 112 °C | IC50 [2]: 108 µM
COC(=O)c1ccccc1-n1cc(CSc2nnc(-c3ccccc3)o2)nn1 [Compound 13, Methyl 2-(4-((5-phenyl–1,3,4-oxadiazol-2-ylthio)methyl)-1H–1,2,3-triazol–1-yl)benzoate] | 1.26 µM | 17.3 µM | 119 to 120 °C | fold activity compared to tamoxifen, MCF-7 ([1]; ratio of IC50, MCF-7): five times; fold activity compared to 5-fluorouracil, HCT-116 [2]: 1.9 fold; fold activity compared to tamoxifen, HCT-116 [2]: 1.5 fold; IC50 [3]: > 50 µM; fold activity compared to pemetrexed, TS [4]: 1.5 fold; IC50 [4, 5]: 4.38 µM
O=C(O)c1ccccc1-n1cc(CSc2nnc(-c3ccccc3)o2)nn1 [Compound 14, 2-(4-((5-phenyl–1,3,4-oxadiazol–2-ylthio)methyl)-1H–1,2,3-triazol–1-yl)benzoic acid] | 40.6 µM | 46.8 µM | 119 to 120 °C | 
Nc1nc2[nH]cc(CCc3ccc(C(=O)N[C@@H](CCC(=O)O)C(=O)O)cc3)c2c(=O)[nH]1 [PTX, pemetrexed, reference compound] |  |  |  | IC50 [4]: 6.75 µM
Clc1ccc(-n2cc(CSc3nnc(-c4ccccc4)o3)nn2)cc1 [Compound 9, 4-((5-phenyl–1,3,4-oxadiazol-2-ylthio)methyl)–1-(4-chlorophenyl)-1H–1,2,3-triazole] | 34.4 µM | 36.7 µM | 200 to 202 °C | 
O=c1[nH]cc(F)c(=O)[nH]1 [Compound 5-FU, 5-fluorouracil, reference compound] | 24.7 µM | 32.7 µM |  | 
Cc1ccc(-n2cc(CSc3nnc(-c4ccccc4)o3)nn2)cc1 [Compound 6, 4-((5-phenyl–1,3,4-oxadiazol–2-ylthio)methyl)-1-p-tolyl–1H-1,2,3-triazole] | 79.8 µM | 89.2 µM |  | 
Brc1cccc(-n2cc(CSc3nnc(-c4ccccc4)o3)nn2)c1 [Compound 10, 4-((5-phenyl–1,3,4-oxadiazol–2-ylthio)methyl)-1-(3-bromophenyl)-1H–1,2,3-triazole] | 25.9 µM | 32.7 µM | 146 to 148 °C | 
